Results: patent US20080292733A1, “Antioxidant and Fe2+ Chelating Properties of Herbal Extracts” (priority 2005, published 2008)
Where two headings read alike, the source gives them in different places.

What was measured:
SH—SY5Y cells = experiment: Neuroblastoma cell viability assay (WST-1), SH—SY5Y; assay type: cell-based, human
N1E 115 cells = experiment: Neuroblastoma cell viability assay (WST-1), N1E 115; assay type: cell-based, murine; settings: N1E 115, 96 hours
[1] = Fe^2+ chelation assay (ferrozine, cell-free)
[2] = cell-free, 0.5 mM FeSO4, 1 mM ferrozine, titration curves, absorbance 562 nm
[3] = SH—SY5Y, 96 hours, dose-response

SMILES | effect on cell number (dose-response curve) (N1E 115 cells) | inhibition of Fe(ferrozine)3^2+ complex formation [1, 2] | effect on cell number (dose-response curve) (SH—SY5Y cells; [3]) | further results
CC(C)=CCC[C@]1(C)[C@@H](CC=C(C)C)C[C@@]2(CC=C(C)C)C(=O)[C@]1(C(=O)C(C)C)C(=O)C(CC=C(C)C)=C2O [hyperforin] | significant and dose-dependent suppression of cell number |  |  | effect on cell number (dose-response curve) (SH—SY5Y cells): significant and dose-dependent suppression of cell number
CC(C)=CCC[C@](C)(O[C@@H]1O[C@H](CO[C@@H]2O[C@H](CO)[C@@H](O)[C@H](O)[C@H]2O)[C@@H](O)[C@H](O)[C@H]1O)[C@H]1CC[C@]2(C)[C@@H]1[C@H](O)C[C@@H]1[C@@]3(C)CC[C@H](O[C@@H]4O[C@H](CO)[C@@H](O)[C@H](O)[C@H]4O[C@@H]4O[C@H](CO)[C@@H](O)[C@H](O)[C@H]4O)C(C)(C)[C@@H]3CC[C@]12C [Rb1, ginsenoside Rb1] |  | demonstrated the ability to inhibit Fe^2+ interaction with ferrozine |  | 
C[C@@H]1C(=O)O[C@H]2C[C@@]34[C@H]5C[C@@H](C(C)(C)C)[C@]36[C@@H](OC(=O)[C@@H]6O)O[C@@]4(C(=O)O5)[C@]21O [ginkgolide A] | Only quercetin demonstrated significant inhibition of cell number |  | Only quercetin demonstrated significant inhibition of cell number | inhibition of Fe(ferrozine)3^2+ complex formation [1]: no activity
O=c1c(O)c(-c2ccc(O)c(O)c2)oc2cc(O)cc(O)c12 [quercetin] | significant inhibition of cell number | able to inhibit Fe(ferrozine)3^2+ complex formation | significant inhibition of cell number | concentration at which significant (P<0.05) inhibition of cell number is first apparent (SH—SY5Y cells; SH—SY5Y, 96 hours): 5 µg/mL; concentration at which significant (P<0.05) inhibition of cell number is first apparent (N1E 115 cells): 5 µg/mL
CC(=O)N(O)CCCCCNC(=O)CCC(=O)N(O)CCCCCNC(=O)CCC(=O)N(O)CCCCCN [DFO, desferroxamine, reference compound] | suppress neuroblastoma cell number | able to prevent Fe(ferrozine)3^2+ complex formation | biphasic effects | 
CC(C)=CCC[C@](C)(O[C@@H]1O[C@H](CO)[C@@H](O)[C@H](O)[C@H]1O)[C@H]1CC[C@]2(C)[C@@H]1[C@H](O)C[C@@H]1[C@@]3(C)CC[C@H](O[C@@H]4O[C@H](CO)[C@@H](O)[C@H](O)[C@H]4O[C@@H]4O[C@H](CO)[C@@H](O)[C@H](O)[C@H]4O)C(C)(C)[C@@H]3CC[C@]12C [Rd, ginsenoside Rd] |  | demonstrated the ability to inhibit Fe^2+ interaction with ferrozine |  | 
CC1C(=O)OC2C(O)C34C5CC(C(C)(C)C)C36C(OC(=O)C6O)OC4(C(=O)O5)C12O (stereo not shown) [ginkgolide B] | Only quercetin demonstrated significant inhibition of cell number | no activity | Only quercetin demonstrated significant inhibition of cell number | 
CC(C)=CCC[C@](C)(O[C@@H]1O[C@H](CO[C@@H]2O[C@@H](CO)[C@H](O)[C@H]2O)[C@@H](O)[C@H](O)[C@H]1O)[C@H]1CC[C@]2(C)[C@@H]1[C@H](O)C[C@@H]1[C@@]3(C)CC[C@H](O[C@@H]4O[C@H](CO)[C@@H](O)[C@H](O)[C@H]4O[C@@H]4O[C@H](CO)[C@@H](O)[C@H](O)[C@H]4O)C(C)(C)[C@@H]3CC[C@]12C [Rc, ginsenoside Rc] |  | demonstrated the ability to inhibit Fe^2+ interaction with ferrozine |  | 
